Test results taken from the supplement of paper PMC8617591.

Experiments:
[1] = test system: Mycobacterium tuberculosis Erdman (autoluminescent); assay: total FIC50 (Loewe) at 50% inhibition, three-drug combination (log2); higher = more antagonistic
Protocol: (§1)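 DiaMOND equipotent three-drug combination dose responses (10 doses, 1.5- or 2-fold spacing, centred on IC90) against autoluminescent M. tuberculosis Erdman in 8 in vitro models. Read-out is OD600, or luminescence for the intracellular and dormancy models, normalised to untreated wells. Hill-fit Einf, AUC25 and GRinf are potency metrics; FIC50 and FIC90 are total Loewe fractional inhibitory concentrations as log2 (negative = synergy).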

[2] = test system: Mycobacterium tuberculosis Erdman (autoluminescent); assay: total FIC90 (Loewe) at 90% inhibition, three-drug combination (log2); higher = more antagonistic
Protocol: as §1

[3] = test system: Mycobacterium tuberculosis Erdman (autoluminescent); assay: Einf, fitted maximum growth inhibition of three-drug combination (fraction); higher = stronger maximal inhibition
Protocol: as §1

[4] = test system: Mycobacterium tuberculosis Erdman (autoluminescent); assay: AUC25, normalised area under dose response up to IC25 (three-drug combination) (fraction (0-1)); higher = more potent at low dose
Protocol: as §1

[5] = test system: Mycobacterium tuberculosis Erdman (autoluminescent); assay: GRinf, maximum normalised growth rate inhibition (three-drug combination) (unitless (-1 to 1)); higher = less effect (negative = killing)
Protocol: as §1

COc1nc2ccc(Br)cc2cc1[C@@H](c1ccccc1)[C@@](O)(CCN(C)C)c1cccc2ccccc12 [bedaquiline] + CC(C)/N=c1\cc2n(-c3ccc(Cl)cc3)c3ccccc3nc-2cc1Nc1ccc(Cl)cc1 [clofazimine] + O=[N+]([O-])c1cn2c(n1)OC[C@@H](OCc1ccc(OC(F)(F)F)cc1)C2 [pretomanid]
Conditions	AUC25, [4]	Einf, [3]	GRinf, [5]	total FIC50, [1]	total FIC90, [2]
in vitro model: acidic pH 5.7, time point: constant (~7 days, model-specific)	0.106	0.809	-0.477	0.502	–
in vitro model: acidic pH 5.7, time point: terminal (~4-5 doublings, model-specific)	0.0881	0.968	-0.411	0.438	0.703
in vitro model: intracellular J774, time point: constant = terminal	–	0.986	-0.307	–	0.235

Conditions	AUC25, [4]	Einf, [3]	GRinf, [5]	total FIC50, [1]	total FIC90, [2]
in vitro model: butyrate, time point: constant (~7 days, model-specific)	0.0748	0.948	-0.105	0.0794	-0.148
in vitro model: butyrate, time point: terminal (~4-5 doublings, model-specific)	0.0598	0.982	-0.123	0.0162	-0.232
in vitro model: cholesterol 0.05 mM, time point: constant (~7 days, model-specific)	0.101	0.724	-0.148	0.099	–
in vitro model: cholesterol 0.05 mM, time point: terminal (~4-5 doublings, model-specific)	0.111	0.938	-0.208	0.567	0.307
in vitro model: cholesterol-high 0.2 mM, time point: constant (~7 days, model-specific)	0.0786	0.94	-0.226	0.161	0.852
in vitro model: cholesterol-high 0.2 mM, time point: terminal (~4-5 doublings, model-specific)	0.0851	1	-0.559	0.209	0.0625
in vitro model: dormancy (butyrate + nitrate, low O2), time point: constant (~7 days, model-specific)	0.0645	0.942	0.201	-0.378	-1.22
in vitro model: dormancy (butyrate + nitrate, low O2), time point: terminal (~4-5 doublings, model-specific)	0.077	0.996	-0.219	-1.08	-1.15
in vitro model: standard 7H9 glycerol, time point: constant = terminal	0.0956	0.967	-0.0799	-0.29	-0.495
in vitro model: valerate, time point: constant (~7 days, model-specific)	0.119	0.91	-0.0979	0.482	-0.269
in vitro model: valerate, time point: terminal (~4-5 doublings, model-specific)	0.0785	0.954	-0.0498	0.323	0.514

COc1nc2ccc(Br)cc2cc1[C@@H](c1ccccc1)[C@@](O)(CCN(C)C)c1cccc2ccccc12 [bedaquiline] + CC[C@@H](CO)NCCN[C@@H](CC)CO [ethambutol] + CC(=O)NC[C@H]1CN(c2ccc(N3CCOCC3)c(F)c2)C(=O)O1 [linezolid]
Conditions	AUC25, [4]	Einf, [3]	GRinf, [5]	total FIC50, [1]	total FIC90, [2]
in vitro model: acidic pH 5.7, time point: constant (~7 days, model-specific)	0.0748	0.822	-0.403	-0.0157	–
in vitro model: acidic pH 5.7, time point: terminal (~4-5 doublings, model-specific)	0.0941	0.977	-0.395	0.509	0.711
in vitro model: intracellular J774, time point: constant = terminal	–	0.922	-0.379	–	0.819

Conditions	AUC25, [4]	Einf, [3]	GRinf, [5]	total FIC50, [1]	total FIC90, [2]
in vitro model: butyrate, time point: constant (~7 days, model-specific)	0.0774	0.931	-0.0747	0.429	–
in vitro model: butyrate, time point: terminal (~4-5 doublings, model-specific)	0.0539	0.964	-0.0521	0.371	-0.223
in vitro model: cholesterol 0.05 mM, time point: constant (~7 days, model-specific)	0.151	0.783	-0.458	0.52	–
in vitro model: cholesterol 0.05 mM, time point: terminal (~4-5 doublings, model-specific)	0.159	0.946	-0.703	8.47	–
in vitro model: cholesterol-high 0.2 mM, time point: constant (~7 days, model-specific)	0.0976	0.984	-1	0.98	–
in vitro model: cholesterol-high 0.2 mM, time point: terminal (~4-5 doublings, model-specific)	0.114	1	-0.946	0.45	1.37
in vitro model: dormancy (butyrate + nitrate, low O2), time point: constant (~7 days, model-specific)	0.124	0.886	0.486	1.37	–
in vitro model: dormancy (butyrate + nitrate, low O2), time point: terminal (~4-5 doublings, model-specific)	0.127	0.989	-0.414	0.241	0.872
in vitro model: standard 7H9 glycerol, time point: constant = terminal	0.0754	0.943	-0.0326	0.387	–
in vitro model: valerate, time point: constant (~7 days, model-specific)	0.106	0.915	-0.161	0.715	–
in vitro model: valerate, time point: terminal (~4-5 doublings, model-specific)	0.0559	0.954	-0.121	0.85	-0.19

COc1nc2ccc(Br)cc2cc1[C@@H](c1ccccc1)[C@@](O)(CCN(C)C)c1cccc2ccccc12 [bedaquiline] + CC[C@@H](CO)NCCN[C@@H](CC)CO [ethambutol] + CO[C@H]1/C=C/O[C@@]2(C)Oc3c(C)c(O)c4c(O)c(c(/C=N/N5CCN(C6CCCC6)CC5)c(O)c4c3C2=O)NC(=O)/C(C)=C\C=C\[C@H](C)[C@H](O)[C@@H](C)[C@@H](O)[C@@H](C)[C@H](OC(C)=O)[C@@H]1C [rifapentine]
Conditions	AUC25, [4]	Einf, [3]	GRinf, [5]	total FIC50, [1]	total FIC90, [2]
in vitro model: acidic pH 5.7, time point: constant (~7 days, model-specific)	0.114	0.961	-0.423	-0.16	–
in vitro model: acidic pH 5.7, time point: terminal (~4-5 doublings, model-specific)	0.0469	0.98	-0.179	0.232	-0.455
in vitro model: intracellular J774, time point: constant = terminal	–	0.947	-0.165	–	-1.85

Conditions	AUC25, [4]	Einf, [3]	GRinf, [5]	total FIC50, [1]	total FIC90, [2]
in vitro model: butyrate, time point: constant (~7 days, model-specific)	0.0669	0.935	-0.0718	0.486	–
in vitro model: butyrate, time point: terminal (~4-5 doublings, model-specific)	0.0551	0.972	-0.0579	0.432	-0.198
in vitro model: cholesterol 0.05 mM, time point: constant (~7 days, model-specific)	0.0736	0.7	-0.229	0.896	–
in vitro model: cholesterol 0.05 mM, time point: terminal (~4-5 doublings, model-specific)	0.0689	0.896	-0.175	1	–
in vitro model: cholesterol-high 0.2 mM, time point: constant (~7 days, model-specific)	0.0263	0.996	-0.736	1.12	–
in vitro model: cholesterol-high 0.2 mM, time point: terminal (~4-5 doublings, model-specific)	0.0449	0.998	-0.697	1.03	1.09
in vitro model: dormancy (butyrate + nitrate, low O2), time point: constant (~7 days, model-specific)	0.125	0.891	0.428	1.06	–
in vitro model: dormancy (butyrate + nitrate, low O2), time point: terminal (~4-5 doublings, model-specific)	0.105	0.982	-0.0507	0.39	0.33
in vitro model: standard 7H9 glycerol, time point: constant = terminal	0.0577	0.931	0.00717	0.213	–
in vitro model: valerate, time point: constant (~7 days, model-specific)	0.0547	0.887	-0.0669	0.793	–
in vitro model: valerate, time point: terminal (~4-5 doublings, model-specific)	0.0403	0.948	-0.0709	0.823	-0.0548
